From patent US9636418B2 (priority 2013, dated 2017)
Several values for one entry are separate records, joined by “and”; a condition that tells them apart may be missing. Equal entries are not always repeated.

Tests used:
Experiment in all cases: cell-based
hNav1.5 = hNav1.5 (Homo sapiens, UniProt Q14524); details: IonWorks Quattro; read-out: IC50 Nav1.5
hNav1.3 = hNav1.3 (Homo sapiens, UniProt Q9NY46); details: IonWorks Quattro; read-out: IC50 Nav1.3
hNav1.4 = hNav1.4 (Homo sapiens, UniProt P35499); details: for IC50: IonWorks Quattro, read-out: IC50 Nav1.4; for Nav1.4/Nav1.7: ratio of IonWorks Quattro IC50 values
hNav1.7 = hNav1.7 (Homo sapiens, UniProt Q15858); details: IonWorks Quattro; read-out: IC50 Nav1.7

hNav1.5, sequence (Q14524 whole entry): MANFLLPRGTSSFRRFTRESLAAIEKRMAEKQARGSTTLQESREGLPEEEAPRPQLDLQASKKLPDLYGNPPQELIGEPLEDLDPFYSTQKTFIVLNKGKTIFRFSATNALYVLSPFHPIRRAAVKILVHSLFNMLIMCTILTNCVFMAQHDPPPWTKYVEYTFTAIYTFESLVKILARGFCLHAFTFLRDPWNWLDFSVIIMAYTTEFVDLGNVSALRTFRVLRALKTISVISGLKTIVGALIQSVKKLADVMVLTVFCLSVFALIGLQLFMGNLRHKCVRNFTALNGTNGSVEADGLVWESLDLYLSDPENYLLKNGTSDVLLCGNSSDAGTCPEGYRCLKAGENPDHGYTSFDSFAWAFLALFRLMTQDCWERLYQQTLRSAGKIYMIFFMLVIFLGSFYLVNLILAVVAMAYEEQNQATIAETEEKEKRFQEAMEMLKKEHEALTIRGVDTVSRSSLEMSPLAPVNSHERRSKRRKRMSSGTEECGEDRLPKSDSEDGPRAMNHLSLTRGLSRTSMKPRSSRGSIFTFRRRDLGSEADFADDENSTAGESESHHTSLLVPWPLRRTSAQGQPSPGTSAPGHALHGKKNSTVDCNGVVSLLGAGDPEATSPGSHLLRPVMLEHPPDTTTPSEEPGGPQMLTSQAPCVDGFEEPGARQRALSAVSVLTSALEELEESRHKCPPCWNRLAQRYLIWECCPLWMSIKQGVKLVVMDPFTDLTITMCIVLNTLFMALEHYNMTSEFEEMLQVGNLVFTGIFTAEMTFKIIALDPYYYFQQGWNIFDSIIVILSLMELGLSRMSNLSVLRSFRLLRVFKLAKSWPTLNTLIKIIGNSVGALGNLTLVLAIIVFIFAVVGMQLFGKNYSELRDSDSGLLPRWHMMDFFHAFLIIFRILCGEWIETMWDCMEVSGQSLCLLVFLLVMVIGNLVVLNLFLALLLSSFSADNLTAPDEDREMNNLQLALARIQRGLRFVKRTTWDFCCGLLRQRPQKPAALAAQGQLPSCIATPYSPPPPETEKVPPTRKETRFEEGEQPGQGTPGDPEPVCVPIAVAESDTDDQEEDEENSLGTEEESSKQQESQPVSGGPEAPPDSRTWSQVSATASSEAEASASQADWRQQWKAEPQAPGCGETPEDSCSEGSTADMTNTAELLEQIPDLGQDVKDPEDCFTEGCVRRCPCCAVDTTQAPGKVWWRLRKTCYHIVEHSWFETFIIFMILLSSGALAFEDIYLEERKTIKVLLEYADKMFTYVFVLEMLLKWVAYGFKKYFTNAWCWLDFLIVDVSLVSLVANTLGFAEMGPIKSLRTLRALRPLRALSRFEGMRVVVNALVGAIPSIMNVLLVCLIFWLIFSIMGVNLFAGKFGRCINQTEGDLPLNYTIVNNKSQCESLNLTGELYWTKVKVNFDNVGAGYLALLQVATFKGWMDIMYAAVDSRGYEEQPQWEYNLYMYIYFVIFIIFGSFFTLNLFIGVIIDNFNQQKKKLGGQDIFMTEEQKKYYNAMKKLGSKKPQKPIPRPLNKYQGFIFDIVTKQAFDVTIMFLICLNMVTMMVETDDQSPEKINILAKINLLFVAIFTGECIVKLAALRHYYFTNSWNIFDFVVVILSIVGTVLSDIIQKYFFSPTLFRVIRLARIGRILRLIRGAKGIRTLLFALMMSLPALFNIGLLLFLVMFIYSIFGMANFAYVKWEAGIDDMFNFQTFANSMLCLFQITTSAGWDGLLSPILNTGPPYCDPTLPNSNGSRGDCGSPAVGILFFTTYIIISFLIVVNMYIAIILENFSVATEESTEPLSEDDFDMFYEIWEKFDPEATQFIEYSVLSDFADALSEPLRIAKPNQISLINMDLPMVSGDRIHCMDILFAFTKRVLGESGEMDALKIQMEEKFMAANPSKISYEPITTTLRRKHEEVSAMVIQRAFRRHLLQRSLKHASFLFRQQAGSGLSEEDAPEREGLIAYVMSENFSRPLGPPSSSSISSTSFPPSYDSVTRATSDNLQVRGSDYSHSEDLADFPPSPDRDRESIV
hNav1.3, sequence (Q9NY46 whole entry): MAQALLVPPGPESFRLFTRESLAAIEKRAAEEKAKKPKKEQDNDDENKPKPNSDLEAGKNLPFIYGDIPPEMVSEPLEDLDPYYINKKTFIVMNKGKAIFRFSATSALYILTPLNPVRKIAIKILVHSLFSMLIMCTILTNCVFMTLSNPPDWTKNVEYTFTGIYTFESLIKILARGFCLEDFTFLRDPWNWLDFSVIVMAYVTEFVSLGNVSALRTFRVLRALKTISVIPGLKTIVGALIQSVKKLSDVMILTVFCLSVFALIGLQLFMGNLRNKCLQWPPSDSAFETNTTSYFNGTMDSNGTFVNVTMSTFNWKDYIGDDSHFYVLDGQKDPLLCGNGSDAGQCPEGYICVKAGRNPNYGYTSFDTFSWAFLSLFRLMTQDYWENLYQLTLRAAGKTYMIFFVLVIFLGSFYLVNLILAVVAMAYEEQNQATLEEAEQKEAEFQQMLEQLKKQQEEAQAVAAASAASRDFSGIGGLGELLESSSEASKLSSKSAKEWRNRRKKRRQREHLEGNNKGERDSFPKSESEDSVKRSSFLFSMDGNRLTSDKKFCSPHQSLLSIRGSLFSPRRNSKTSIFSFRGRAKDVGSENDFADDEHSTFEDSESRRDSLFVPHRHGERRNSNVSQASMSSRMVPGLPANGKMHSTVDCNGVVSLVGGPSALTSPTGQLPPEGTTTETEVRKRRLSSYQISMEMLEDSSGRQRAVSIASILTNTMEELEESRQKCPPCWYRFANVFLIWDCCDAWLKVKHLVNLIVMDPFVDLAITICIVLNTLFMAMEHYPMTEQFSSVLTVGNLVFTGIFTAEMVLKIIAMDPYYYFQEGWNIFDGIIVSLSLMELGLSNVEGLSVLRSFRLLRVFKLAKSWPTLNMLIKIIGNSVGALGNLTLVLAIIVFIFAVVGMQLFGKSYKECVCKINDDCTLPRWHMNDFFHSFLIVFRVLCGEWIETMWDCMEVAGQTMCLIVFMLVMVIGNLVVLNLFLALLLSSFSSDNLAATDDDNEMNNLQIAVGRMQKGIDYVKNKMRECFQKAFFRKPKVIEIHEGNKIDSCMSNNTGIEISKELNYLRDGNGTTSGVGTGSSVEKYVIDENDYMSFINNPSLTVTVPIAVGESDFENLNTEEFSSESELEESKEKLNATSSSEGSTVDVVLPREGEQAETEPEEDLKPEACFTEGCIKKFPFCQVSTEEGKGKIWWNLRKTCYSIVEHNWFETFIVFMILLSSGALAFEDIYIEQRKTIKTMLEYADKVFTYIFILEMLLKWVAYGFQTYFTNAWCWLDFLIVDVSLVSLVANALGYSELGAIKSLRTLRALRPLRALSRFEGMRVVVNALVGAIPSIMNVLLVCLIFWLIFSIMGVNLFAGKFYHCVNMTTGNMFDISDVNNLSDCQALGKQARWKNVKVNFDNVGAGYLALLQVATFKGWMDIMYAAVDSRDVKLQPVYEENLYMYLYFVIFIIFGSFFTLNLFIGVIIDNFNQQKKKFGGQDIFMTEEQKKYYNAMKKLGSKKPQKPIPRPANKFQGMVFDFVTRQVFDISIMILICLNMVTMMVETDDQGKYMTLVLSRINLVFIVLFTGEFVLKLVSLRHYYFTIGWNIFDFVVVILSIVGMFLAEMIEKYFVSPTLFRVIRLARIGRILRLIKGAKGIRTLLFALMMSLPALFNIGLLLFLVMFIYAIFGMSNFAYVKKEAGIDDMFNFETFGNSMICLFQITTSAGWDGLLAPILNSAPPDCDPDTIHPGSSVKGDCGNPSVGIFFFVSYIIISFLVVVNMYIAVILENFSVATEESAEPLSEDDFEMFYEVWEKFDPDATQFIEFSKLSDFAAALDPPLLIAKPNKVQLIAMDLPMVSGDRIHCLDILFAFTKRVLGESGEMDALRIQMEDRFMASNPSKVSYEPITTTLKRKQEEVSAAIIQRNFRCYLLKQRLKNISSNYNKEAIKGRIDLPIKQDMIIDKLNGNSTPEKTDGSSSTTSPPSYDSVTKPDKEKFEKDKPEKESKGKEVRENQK

SMILES	IC50 (hNav1.5)	IC50 (hNav1.3)	IC50 (hNav1.4)	Nav1.4/Nav1.7 (hNav1.4)	IC50 (hNav1.7)
CC[C@H](C)[C@H](NC(=O)[C@@H](NC(=O)[C@H](CCCCN)NC(=O)[C@H](CCCNC(=N)N)NC(=O)[C@@H]1CSSC[C@@H]2NC(=O)[C@H](C)NC(=O)[C@H](CCCNC(=N)N)NC(=O)[C@H](CCCCN)NC(=O)[C@H](CO)NC(=O)[C@H](CC(=O)O)NC(=O)[C@@H]3CSSC[C@H](NC(=O)[C@H](CO)NC(=O)[C@H](CC(C)C)NC(=O)CNC(=O)[C@H](CCC(=O)O)NC(=O)[C@H](CSSC[C@H](NC(=O)[C@@H](N)Cc4ccc(O)cc4)C(=O)N[C@@H](CCC(N)=O)C(=O)N[C@@H](CCCCN)C(=O)N[C@@H](Cc4c[nH]c5ccccc45)C(=O)N[C@@H](CCSC)C(=O)N[C@@H](Cc4c[nH]c5ccccc45)C(=O)N[C@@H]([C@@H](C)O)C(=O)N3)NC2=O)C(=O)N[C@@H](CCCCN)C(=O)N[C@@H](CC(C)C)C(=O)N[C@@H](Cc2c[nH]c3ccccc23)C(=O)N1)[C@@H](C)CC)C(N)=O [compound 125]	9.2 µM	0.29 µM	0.4 µM	17	0.03 µM
CC[C@H](C)[C@H](NC(=O)[C@H](Cc1ccc(O)cc1)NC(=O)[C@H](CCCCN)NC(=O)[C@H](CCCNC(=N)N)NC(=O)[C@@H]1CSSC[C@@H]2NC(=O)[C@H](C)NC(=O)[C@H](CCCNC(=N)N)NC(=O)[C@H](CCCCN)NC(=O)[C@H](CO)NC(=O)[C@H](CC(=O)O)NC(=O)[C@@H]3CSSC[C@H](NC(=O)[C@H](CCC(=O)O)NC(=O)[C@H](CC(C)C)NC(=O)CNC(=O)[C@H](CCC(=O)O)NC(=O)[C@H](CSSC[C@H](NC(=O)[C@@H](N)Cc4ccc(O)cc4)C(=O)N[C@@H](CCC(N)=O)C(=O)N[C@@H](CCCCN)C(=O)N[C@@H](Cc4c[nH]c5ccccc45)C(=O)N[C@@H](CCSC)C(=O)N[C@@H](CO)C(=O)N[C@@H]([C@@H](C)O)C(=O)N3)NC2=O)C(=O)N[C@@H](CCCCN)C(=O)N[C@@H](CC(C)C)C(=O)N[C@@H](Cc2c[nH]c3ccccc23)C(=O)N1)C(N)=O [compound 216]	> 7 µM and 5.4 µM	> 7 µM	> 7 µM	–	4.7 µM and 6.6 µM
CC[C@H](C)[C@H](NC(=O)[C@H](CCCCN)NC(=O)[C@H](CCCNC(=N)N)NC(=O)[C@@H]1CSSC[C@@H]2NC(=O)[C@H](C)NC(=O)[C@H](CCCNC(=N)N)NC(=O)[C@H](CCCCN)NC(=O)[C@H](CO)NC(=O)[C@H](CC(=O)O)NC(=O)[C@@H]3CSSC[C@H](NC(=O)[C@H](CCC(=O)O)NC(=O)[C@H](CC(C)C)NC(=O)CNC(=O)[C@H](CCC(=O)O)NC(=O)[C@H](CSSC[C@H](NC(=O)[C@@H](N)Cc4ccc(O)cc4)C(=O)N[C@@H](CCC(N)=O)C(=O)N[C@@H](CCCCN)C(=O)N[C@@H](Cc4c[nH]c5ccccc45)C(=O)N[C@@H](CCSC)C(=O)N[C@@H](Cc4c[nH]c5ccccc45)C(=O)N[C@@H]([C@@H](C)O)C(=O)N3)NC2=O)C(=O)N[C@@H](CCCCN)C(=O)N[C@@H](CC(C)C)C(=O)N[C@@H](Cc2c[nH]c3ccccc23)C(=O)N1)C(=O)N[C@H](C(=O)N[C@@H](Cc1c[nH]c2ccccc12)C(N)=O)[C@@H](C)CC [compound 113]	11.1 µM	> 5 µM	> 5 µM	30	0.17 µM
CC[C@H](C)[C@H](NC(=O)[C@H](Cc1ccc(O)cc1)NC(=O)[C@H](CCCCN)NC(=O)[C@H](CCCNC(=N)N)NC(=O)[C@@H]1CSSC[C@@H]2NC(=O)[C@H](C)NC(=O)[C@H](CCCNC(=N)N)NC(=O)[C@H](CCCCN)NC(=O)[C@H](CO)NC(=O)[C@H](CC(=O)O)NC(=O)[C@@H]3CSSC[C@H](NC(=O)[C@H](CCC(=O)O)NC(=O)[C@H](CC(C)C)NC(=O)CNC(=O)[C@H](CCC(=O)O)NC(=O)[C@H](CSSC[C@H](NC(=O)[C@@H](N)Cc4ccc(O)cc4)C(=O)N[C@@H](CCC(N)=O)C(=O)N[C@@H](CCCCN)C(=O)N[C@@H](Cc4c[nH]c5ccccc45)C(=O)N[C@@H](CCSC)C(=O)N[C@@H](Cc4c[nH]c5ccccc45)C(=O)N[C@@H]([C@@H](C)O)C(=O)N3)NC2=O)C(=O)N[C@@H](CCCCN)C(=O)N[C@@H](CC(C)C)C(=O)N[C@@H](Cc2ccc3ccccc3c2)C(=O)N1)C(N)=O [compound 219]	> 7 µM	> 7 µM	> 7 µM	–	0.86 µM and 1 µM
CC[C@H](C)[C@H](NC(=O)[C@H](Cc1ccc(O)cc1)NC(=O)[C@H](CCCCN)NC(=O)[C@H](CCCNC(=N)N)NC(=O)[C@@H]1CSSC[C@@H]2NC(=O)[C@H](C)NC(=O)[C@H](CCCNC(=N)N)NC(=O)[C@H](CCCCN)NC(=O)[C@H](CO)NC(=O)[C@H](CC(=O)O)NC(=O)[C@@H]3CSSC[C@H](NC(=O)[C@H](CCCNC(=N)N)NC(=O)[C@H](CC(C)C)NC(=O)CNC(=O)[C@H](CCC(=O)O)NC(=O)[C@H](CSSC[C@H](NC(=O)[C@@H](N)CCC(=O)O)C(=O)N[C@@H](CCC(N)=O)C(=O)N[C@@H](CCCCN)C(=O)N[C@@H](Cc4c[nH]c5ccccc45)C(=O)N[C@@H](CCSC)C(=O)N[C@@H](Cc4c[nH]c5ccccc45)C(=O)N[C@@H]([C@@H](C)O)C(=O)N3)NC2=O)C(=O)N[C@@H](CCCCN)C(=O)N[C@@H](CC(C)C)C(=O)N[C@@H](Cc2c[nH]c3ccccc23)C(=O)N1)C(N)=O [compound 278]	> 5 µM	0.3 µM	0.7 µM	16	0.046 µM
CCC[C@@H]1NC(=O)[C@H](CCSC)NC(=O)[C@H](Cc2c[nH]c3ccccc23)NC(=O)[C@H](CCCCN)NC(=O)[C@H](CCC(N)=O)NC(=O)[C@@H](NC(=O)[C@@H](N)Cc2ccc(O)cc2)CSSC[C@@H]2NC(=O)[C@@H]3CSSC[C@@H](C(=O)N[C@@H](CCCNC(=N)N)C(=O)N[C@@H](CCCCN)C(=O)N[C@@H](Cc4ccc(O)cc4)C(=O)N[C@H](C(N)=O)[C@@H](C)CC)NC(=O)[C@H](Cc4c[nH]c5ccccc45)NC(=O)[C@H](CC(C)C)NC(=O)[C@H](CCCCN)NC(=O)[C@H](CSSC[C@H](NC(=O)[C@H]([C@@H](C)O)NC1=O)C(=O)N[C@@H](CC(=O)O)C(=O)N[C@@H](CO)C(=O)N[C@@H](CCCCN)C(=O)N[C@@H](CCCNC(=N)N)C(=O)N[C@@H](C)C(=O)N3)NC(=O)[C@H](CCC(=O)O)NC(=O)[C@H](CC(C)C)NC(=O)CNC(=O)[C@H](CCC(=O)O)NC2=O [compound 212]	> 7 µM	> 7 µM	> 7 µM	–	4.5 µM
CCC[C@@H]1NC(=O)[C@H](CC(C)C)NC(=O)CNC(=O)[C@H](CCC(=O)O)NC(=O)[C@@H]2CSSC[C@H](NC(=O)[C@@H](N)Cc3ccc(O)cc3)C(=O)N[C@@H](CCC(N)=O)C(=O)N[C@@H](CCCCN)C(=O)N[C@@H](Cc3c[nH]c4ccccc34)C(=O)N[C@@H](CCSC)C(=O)N[C@@H](Cc3c[nH]c4ccccc34)C(=O)N[C@@H]([C@@H](C)O)C(=O)N[C@H]3CSSC[C@H](NC1=O)C(=O)N[C@@H](CCCCN)C(=O)N[C@@H](CC(C)C)C(=O)N[C@@H](Cc1c[nH]c4ccccc14)C(=O)N[C@H](C(=O)N[C@@H](CCCNC(=N)N)C(=O)N[C@@H](CCCCN)C(=O)N[C@H](C(=O)N[C@H](C(N)=O)[C@@H](C)CC)[C@@H](C)CC)CSSC[C@H](NC(=O)[C@H](C)NC(=O)[C@H](CCCNC(=N)N)NC(=O)[C@H](CCCCN)NC(=O)[C@H](CO)NC(=O)[C@H](CC(=O)O)NC3=O)C(=O)N2 [compound 123]	10.4 µM	> 5 µM	3.1 µM	19	0.17 µM
CC[C@H](C)[C@H](NC(=O)[C@H](CCC(=O)O)NC(=O)[C@H](CCCCN)NC(=O)[C@H](CCCNC(=N)N)NC(=O)[C@@H]1CSSC[C@@H]2NC(=O)[C@H](C)NC(=O)[C@H](CCCNC(=N)N)NC(=O)[C@H](CCCCN)NC(=O)[C@H](CO)NC(=O)[C@H](CC(=O)O)NC(=O)[C@@H]3CSSC[C@H](NC(=O)[C@H](CCC(=O)O)NC(=O)[C@H](CC(C)C)NC(=O)CNC(=O)[C@H](CCC(=O)O)NC(=O)[C@H](CSSC[C@H](NC(=O)[C@@H](N)Cc4ccc(O)cc4)C(=O)N[C@@H](CCC(N)=O)C(=O)N[C@@H](CCCCN)C(=O)N[C@@H](Cc4c[nH]c5ccccc45)C(=O)N[C@@H](CCSC)C(=O)N[C@@H](Cc4c[nH]c5ccccc45)C(=O)N[C@@H]([C@@H](C)O)C(=O)N3)NC2=O)C(=O)N[C@@H](CCCCN)C(=O)N[C@@H](CC(C)C)C(=O)N[C@@H](Cc2c[nH]c3ccccc23)C(=O)N1)C(N)=O [compound 126]	15.8 µM and 7.5 µM	> 5 µM	> 5 µM	5 and 3	0.95 µM and 1.44 µM
CC[C@H](C)[C@H](NC(=O)[C@H](Cc1ccc(O)cc1)NC(=O)[C@H](CCCCN)NC(=O)[C@H](CCCNC(=N)N)NC(=O)[C@@H]1CSSC[C@@H]2NC(=O)[C@H](C)NC(=O)[C@H](CCCNC(=N)N)NC(=O)[C@H](CCCCN)NC(=O)[C@H](CO)NC(=O)[C@H](CC(=O)O)NC(=O)[C@@H]3CSSC[C@H](NC(=O)[C@H](CCC(=O)O)NC(=O)[C@H](CC(C)C)NC(=O)CNC(=O)[C@H](CCC(=O)O)NC(=O)[C@H](CSSC[C@H](NC(=O)[C@@H](N)Cc4ccc(O)cc4)C(=O)N[C@@H](CCC(N)=O)C(=O)N[C@@H](CCCCN)C(=O)N[C@@H](Cc4c[nH]c5ccccc45)C(=O)N[C@@H](CCSC)C(=O)N[C@@H](CC(N)=O)C(=O)N[C@@H]([C@@H](C)O)C(=O)N3)NC2=O)C(=O)N[C@@H](CCCCN)C(=O)N[C@@H](CC(C)C)C(=O)N[C@@H](Cc2c[nH]c3ccccc23)C(=O)N1)C(N)=O [compound 215]	> 7 µM	> 7 µM	6.1 µM	1	5 µM
